Results reported in patent US8637670B2, “Imidazo [4,5-C]quinoline derivatives and their use in the treatment of tumors and/or inflammation” (Piramal Enterprises Limited, priority 2009, dated 2014).
One block for each compound: values may come before it.

Experiments:
[1] = tested on: HCT116; assay: Cytotoxicity, propidium iodide assay, HCT116; assay type: cell-based; conditions: Homo sapiens, HCT-116; Colon, HCT116, 48 hours treatment; read-out: IC50, C4a (HCT116)
Protocol: (§1) The assay was designed as in the reference, Anticancer Drugs, 2002, 13, 1-8, the disclosure of which is incorporated by reference for the teaching of the assay.
(§2) Cells from cell lines as mentioned in the table given below were seeded at a density of 3000 cells/well in a white opaque 96-well plate. Following incubation at 37° C./5% CO2 for a period of 18-24 hours, the cells were treated with various concentrations (stock solution was prepared in DMSO and subsequent dilutions were made in media as per ATCC guidelines) of the compounds of Example 1-40 was for a period of 48 hours. At the end of treatment, the spent culture medium was discarded, the cells were washed with 1×PBS and 200 μl of 7 μg/ml propidium iodide was added to each well. The plates were frozen at −70° C. for at least 24 hours. For analysis, the plates were brought to RT, allowed to thaw and were read in PoleStar fluorimeter with the fluorescence setting. The percentage of viable cells in the non-treated set of wells was considered to be 100 and the percentage viability following treatment was calculated accordingly. IC50 values were calculated from graphs plotted using these percentages. Table 4 depicts the IC50 values of compounds of Example 1-40 in individual cell lines.
(§3) The abbreviations for the Cell Lines as used in Table 4 are: […]

[2] = tested on: IL-6; assay: Human monocyte assay, LPS-stimulated IL-6 (ELISA); assay type: cell-based; conditions: human monocytes, 1 μg/ml LPS, 5 hours
Protocol: (§4) The assay was designed as in the reference, Physiol. Res., 2003, 52, 593-598, the disclosure of which is incorporated by reference for the teaching of the assay.
(§5) Peripheral blood mononuclear cells (hPBMC) were harvested from human blood and suspended in RPMI 1640 culture medium containing 10% FCS, 100 U/mL penicillin and […] streptomycin (assay medium). Monocytes in the hPBMCs were counted using a Coulter Counter following which the cells were resuspended at 2×10^5 monocytes/mL. A cell suspension containing 2×10^4 monocytes was aliquoted per well of a 96-well plate. Subsequently, the hPBMCs were incubated for 4-5 hours at 37° C. under 5% CO2 (During the incubation, the monocytes adhered to the bottom of 96-well plastic culture plate). Following the incubation, the non-adherent lymphocytes were washed with assay medium and the adherent monocytes re-fed with assay medium. After a 48-hour incubation period (37° C., 5% CO2), monocytes were pretreated with various concentrations of compounds of Example 1-40 (prepared in DMSO) or vehicle (0.5% DMSO) for 30 minutes and stimulated with 1 μg/ml LPS (Escherchia coli 0111:B4, Sigma Chemical Co., St. Louis, Mo.). The incubation was continued for 5 hours at 37° C., 5% CO2. Supernatants were harvested, assayed for IL-6 and TNF-α by ELISA as described by the manufacturer (BD Biosciences, USA). Dexamethasone (10 μM) was used as standard for this assay. The 50% inhibitory concentration (IC50) values were calculated by a nonlinear regression method. In all experiments, a parallel plate was run to ascertain the toxicity of compounds of Example 1-40. The toxicity was determined using the MTS assay as described in Am. J. Physiol. Cell Physiol., 2003, 285, C813-C822.

[3] = tested on: PC3; assay: Cytotoxicity, propidium iodide assay, PC3; assay type: cell-based; conditions: Homo sapiens, PC-3; Prostate, PC3, 48 hours treatment; read-out: IC50, C2a (PC3)
Protocol: as §1, §2, §3

[4] = tested on: U 87 MG; assay: Cytotoxicity, propidium iodide assay, U 87 MG; assay type: cell-based; conditions: Homo sapiens, Glioblastoma, 48 hours treatment, read-out: IC50, C7b (U 87 MG)
Protocol: as §1, §2, §3

[5] = tested on: OVCAR 3; assay: Cytotoxicity, propidium iodide assay, OVCAR 3; assay type: cell-based; conditions: Homo sapiens; Ovarian, OVCAR 3, 48 hours treatment; read-out: IC50, C3b (OVCAR 3)
Protocol: as §1, §2, §3

[6] = tested on: H460; assay: Cytotoxicity, propidium iodide assay, H460; assay type: cell-based; conditions: Homo sapiens, NCI-H460; Lung, H460, 48 hours treatment; read-out: IC50, C1b (H460)
Protocol: as §1, §2, §3

[7] = tested on: A549; assay: Cytotoxicity, propidium iodide assay, A549; assay type: cell-based; conditions: Homo sapiens; Lung, A549, 48 hours treatment; read-out: IC50, C1a (A549)
Protocol: as §1, §2, §3

[8] = tested on: U 373; assay: Cytotoxicity, propidium iodide assay, U 373; assay type: cell-based; conditions: Homo sapiens, U373 MG; Glioblastoma, U 373, 48 hours treatment; read-out: IC50, C7a (U 373)
Protocol: as §1, §2, §3

[9] = molecular target: T1, PI3Kα kinase (Homo sapiens, UniProt P42336); assay: PI3Kα assay (32P incorporation into phosphatidylinositol, TLC densitometry); assay type: biochemical; conditions: At 100 nM
T1 construct: purchased Millipore, USA
T1 sequence (P42336 whole entry): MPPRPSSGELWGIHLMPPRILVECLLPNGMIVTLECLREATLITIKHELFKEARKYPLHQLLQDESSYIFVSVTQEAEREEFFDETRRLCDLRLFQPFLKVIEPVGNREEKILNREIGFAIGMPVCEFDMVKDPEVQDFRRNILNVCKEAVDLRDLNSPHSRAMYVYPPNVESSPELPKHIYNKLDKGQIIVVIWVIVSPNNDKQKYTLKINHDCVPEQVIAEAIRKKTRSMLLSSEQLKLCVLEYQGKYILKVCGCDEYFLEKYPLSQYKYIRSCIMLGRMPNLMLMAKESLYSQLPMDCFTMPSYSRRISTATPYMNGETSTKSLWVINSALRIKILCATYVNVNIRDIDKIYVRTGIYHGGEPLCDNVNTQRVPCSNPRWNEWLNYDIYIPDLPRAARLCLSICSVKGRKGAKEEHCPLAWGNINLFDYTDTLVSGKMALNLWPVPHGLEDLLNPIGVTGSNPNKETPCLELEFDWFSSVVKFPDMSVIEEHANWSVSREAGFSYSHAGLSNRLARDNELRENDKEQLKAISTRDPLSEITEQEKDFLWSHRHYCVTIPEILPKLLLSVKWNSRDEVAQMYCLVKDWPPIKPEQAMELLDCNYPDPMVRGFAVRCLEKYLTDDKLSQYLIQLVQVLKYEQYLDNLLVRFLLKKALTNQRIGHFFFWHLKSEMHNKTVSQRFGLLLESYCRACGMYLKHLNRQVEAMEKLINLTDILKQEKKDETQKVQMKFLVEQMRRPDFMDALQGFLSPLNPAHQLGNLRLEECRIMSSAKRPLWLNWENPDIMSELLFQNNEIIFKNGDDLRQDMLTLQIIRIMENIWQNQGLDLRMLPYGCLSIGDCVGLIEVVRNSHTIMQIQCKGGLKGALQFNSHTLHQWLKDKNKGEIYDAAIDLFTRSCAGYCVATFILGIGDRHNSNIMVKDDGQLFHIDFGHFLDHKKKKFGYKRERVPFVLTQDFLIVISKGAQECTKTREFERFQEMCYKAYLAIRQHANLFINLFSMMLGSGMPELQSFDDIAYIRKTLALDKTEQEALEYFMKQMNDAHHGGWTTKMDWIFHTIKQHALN
T1 sequence (P27986 whole entry partner): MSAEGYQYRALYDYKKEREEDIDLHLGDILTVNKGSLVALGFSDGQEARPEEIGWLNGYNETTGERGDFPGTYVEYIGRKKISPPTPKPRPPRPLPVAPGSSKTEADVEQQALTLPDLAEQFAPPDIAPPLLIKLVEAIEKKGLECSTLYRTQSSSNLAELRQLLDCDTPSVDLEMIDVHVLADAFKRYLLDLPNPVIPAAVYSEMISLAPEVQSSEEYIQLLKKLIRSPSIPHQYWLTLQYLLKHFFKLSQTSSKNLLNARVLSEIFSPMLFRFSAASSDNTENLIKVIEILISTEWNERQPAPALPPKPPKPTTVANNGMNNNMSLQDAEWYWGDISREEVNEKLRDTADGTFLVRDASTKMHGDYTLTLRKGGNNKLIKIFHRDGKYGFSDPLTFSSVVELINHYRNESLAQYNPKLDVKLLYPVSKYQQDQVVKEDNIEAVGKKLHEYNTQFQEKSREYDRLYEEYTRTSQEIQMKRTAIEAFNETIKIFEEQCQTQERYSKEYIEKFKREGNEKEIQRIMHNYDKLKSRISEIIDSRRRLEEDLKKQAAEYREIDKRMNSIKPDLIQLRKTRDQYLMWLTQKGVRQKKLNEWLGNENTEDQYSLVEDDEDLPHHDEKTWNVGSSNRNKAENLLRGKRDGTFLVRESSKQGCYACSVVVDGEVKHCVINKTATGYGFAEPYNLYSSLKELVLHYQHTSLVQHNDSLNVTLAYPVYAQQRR
Protocol: The assay was designed as in the reference, Cell, 2006, 125, 733-47 (Supplemental Data), the disclosure of which is incorporated by reference for the teaching of the assay.
The kinase reaction was carried out in a 25 μL volume in a 1.5 mL microcentrifuge tube. The reaction mixture consisted of kinase buffer (10 mM Hepes, pH 7.5, 50 mM MgCl2), 20 ng PI3Kα kinase (Millipore, USA), 12.5 μg phosphatidylinositol (PI), 10 μM ATP and 1 μCi ^32γ P dATP. Compounds of Example 1-40 were added at concentrations (stock solution was prepared in DMSO and subsequent dilutions were made in kinase buffer) as mentioned in the table. The reaction mixture was incubated at 30° C. for 20 minutes and was terminated by adding 1:1 mixture of MeOH and chloroform. The tube contents were mixed on a vortex mixer and centrifuged at 10000 rpm for 2 minutes. 10 μL of the organic (lower) phase was spotted on to a TLC plate (silica, mobile phase: n-propanol and 2 M glacial acetic acid in 65:35 ratio). The plates were dried and exposed to an X-ray film. The bands appearing as a result of ^32γ P incorporation in PI were quantitated using the QuantityOne (BioRad, USA) densitometry program. PI-103 (Calbiochem, USA) was used as a standard.

[10] = tested on: PI3K α; assay: PI3K activity assay, cell-based ELISA of AKT (Ser 473) phosphorylation; conditions: Homo sapiens, Ovarian cell line A2780, 20% FCS stimulation
Protocol: The assay was designed as in the reference, Biochemical Journal, 2000, 350, 717-722, the disclosure of which is incorporated by reference for the teaching of the assay.
Seed cells (Ovarian cell line A2780, ATCC) were plated in a 96 well microtitre plate at a density of 50,000 cells/cm^2 in appropriate complete cell culture medium. The cells were allowed to adhere for 18-24 hours. The cells were allowed to starve for 24 hours. The cells were pretreated (in triplicates) with the compounds of Example 1-40 (stock solution was prepared in DMSO and subsequent dilutions were made in kinase buffer) at a concentration of 10 μM for one hour. Then the cells were stimulated with 20% FCS for 30 minutes. A typical assay would consist of a set of unstimulated cells, a set of stimulated cells and a set of cells treated with compounds of Example 1-40 and a set of cells treated with the stimulator. The medium was discarded. The cells were fixed with 100 μL of 3.7% formaldehyde for 15 minutes. The formaldehyde was discarded by inverting the plate and tapping it on a thick tissue paper layer to remove traces. The cells were washed and permeabilized with 200 μL PBS+Triton-X 100 solution (hereafter referred to as PBS-Triton, containing 0.1% triton-X 100 in 1×PBS) three times, incubating the cells each time for 5 minutes. 100 μL blocking solution (10% FCS in PBS-Triton) was added and incubated for 1 hour at 25° C. The blocking solution was discarded and cells were incubated with the primary antibody in PBS-Triton at a dilution of 1:500 for 1 hour at RT (25° C.). [The primary antibody is Phospho-AKT (Ser 473); Cell Signaling; USA, Cat. No. 9271]. The primary antibody solution was discarded and the cells were washed 3 times with PBS-Triton solution and incubated with the HRP-conjugated secondary antibody in PBS-Triton at a dilution of 1:500 for 1 hour at RT (25° C.). The cells were washed 3 times with PBS-Triton followed by two washes with PBS (to remove traces of triton-X 100). The OPD (o-phenylene diamine dihydrochloride) substrate was prepared for detection of the signal by dissolving one tablet set (two tablets) of SigmaFast OPD (Sigma, USA, Cat No. P9187) in 20 mL distilled water. It should be kept protected from light. 100 μL OPD solutions was added to the wells and the plate was incubated in the dark for 3-5 minutes (depending upon the development of the color). The reaction was stopped by adding 50 μL 2 NH2SO4. The absorbance was measured at 490 nm. The values were expressed in the treated samples, in terms of percentage or fold decrease in AKT phosphorylation with respect to the induced sample. PI-103 (Calbiochem, USA) was used as a standard.

[11] = tested on: A2780; assay: Cytotoxicity, propidium iodide assay, A2780; assay type: cell-based; conditions: Homo sapiens; Ovarian, A2780, 48 hours treatment; read-out: IC50, C3a (A2780)
Protocol: as §1, §2, §3

[12] = tested on: PANC 1; assay: Cytotoxicity, propidium iodide assay, PANC 1; assay type: cell-based; conditions: Homo sapiens; Pancreatic, PANC 1, 48 hours treatment; read-out: IC50, C5a (PANC 1)
Protocol: as §1, §2, §3

[13] = tested on: TNF-α; assay: Human monocyte assay, LPS-stimulated TNF-α (ELISA); assay type: cell-based; conditions: human monocytes, 1 μg/ml LPS, 5 hours, read-out: TNFα (IC50)
Protocol: as §4, §5

SMILES: Cc1ccc(S(=O)(=O)n2c(=O)n(-c3ccc(C(C)(C)C#N)cc3)c3c4cc(Br)ccc4ncc32)cc1F [Example 5, 2-(4-(8-Bromo-3-(3-fluoro-4-methylphenylsulfonyl)-2-oxo-2,3-dihydro-1H-imidazo[4,5-c]quinolin-1-yl)phenyl)-2-methylpropanenitrile]
IC50 [1]: > 3 µM
IC50 [3]: 1 to 3 µM
IC50 [4]: 1 to 3 µM
IC50 [5]: > 3 µM
IC50 [6]: 1 to 3 µM
IC50 [7]: 1 to 3 µM
IC50 [8]: > 3 µM

SMILES: CC(C)(C#N)c1ccc(-n2c(=O)n(C(=O)Nc3ccccc3Br)c3cnc4ccc(Br)cc4c32)cc1 [Example 33, 8-Bromo-N-(2-bromophenyl)-1-(4-(2-cyanopropan-2-yl)phenyl)-2-oxo-1H-imidazo[4,5-c]quinoline-3(2H)-carboxamide]
IC50 [1]: > 3 µM
IC50 [2]: > 30 µM
IC50 [3]: > 3 µM
inhibition at 0.1 µM [9]: > 50%
IC50 [4]: > 3 µM
IC50 [13]: ≤ 1 µM
IC50 [5]: > 3 µM
IC50 [6]: 1 to 3 µM
IC50 [7]: 1 to 3 µM
IC50 [8]: > 3 µM

SMILES: CC(=O)n1c(=O)n(-c2ccc(C(C)(C)C#N)cc2)c2c3cc(Cl)ccc3ncc21 [Example 36, 2-(4-(3-Acetyl-8-chloro-2-oxo-2,3-dihydro-1H-imidazo[4,5-c]quinolin-1-yl)phenyl)-2-methylpropanenitrile]
IC50 [1]: > 3 µM
IC50 [3]: > 3 µM
inhibition at 0.1 µM [9]: 10 to 50%
IC50 [4]: > 3 µM
IC50 [5]: > 3 µM
IC50 [6]: ≤ 1 µM
IC50 [7]: 1 to 3 µM
IC50 [8]: > 3 µM

Continued, in another order:

IC50 [2]: 1 to 10 µM
SMILES: Cc1ccc([N+](=O)[O-])cc1S(=O)(=O)n1c(=O)n(-c2ccc(C(C)(C)C#N)cc2)c2c3cc(Br)ccc3ncc21 [Example 4, 2-(4-(8-Bromo-3-(2-methyl-5-nitrophenylsulfonyl)-2-oxo-2,3-dihydro-1H-imidazo[4,5-c]quinolin-1-yl)phenyl)-2-methylpropanenitrile]
IC50 [1]: > 3 µM
IC50 [3]: 1 to 3 µM
IC50 [4]: 1 to 3 µM
IC50 [5]: > 3 µM
IC50 [6]: 1 to 3 µM
IC50 [7]: 1 to 3 µM
IC50 [8]: > 3 µM

IC50 [2]: > 30 µM
inhibition at 0.1 µM [9]: > 50%
SMILES: Cc1cc(C)cc(S(=O)(=O)n2c(=O)n(-c3ccc(C(C)(C)C#N)cc3)c3c4cc(Br)ccc4ncc32)c1 [Example 6, 2-(4-(8-Bromo-3-(3,5-dimethylphenylsulfonyl)-2-oxo-2,3-dihydro-1H-imidazo[4,5-c]quinolin-1-yl)phenyl)-2-methylpropanenitrile]
IC50 [1]: > 3 µM
IC50 [3]: 1 to 3 µM
IC50 [4]: > 3 µM
IC50 [5]: > 3 µM
IC50 [6]: > 3 µM
IC50 [7]: > 3 µM
IC50 [8]: > 3 µM
inhibition at 10 µM [10]: 10 to 50%

inhibition at 0.1 µM [9]: 10 to 50%
SMILES: CC(C)(C#N)c1ccc(-n2c(=O)n(S(=O)(=O)c3cccc(C(F)(F)F)c3)c3cnc4ccc(Br)cc4c32)cc1 [Example 13, 2-(4-(8-Bromo-2-oxo-3-(3-(trifluoromethyl)phenylsulfonyl)-2,3-dihydro-1H-imidazo[4,5-c]quinolin-1-yl)phenyl)-2-methylpropanenitrile]
IC50 [1]: > 3 µM
IC50 [3]: > 3 µM
IC50 [4]: > 3 µM
IC50 [5]: > 3 µM
IC50 [6]: > 3 µM
IC50 [7]: > 3 µM
IC50 [8]: > 3 µM

IC50 [2]: 1 to 10 µM
SMILES: CC(C)(C#N)c1ccc(-n2c(=O)n(S(=O)(=O)c3cccc(Br)c3)c3cnc4ccc(Br)cc4c32)cc1 [Example 15, 2-(4-(8-Bromo-3-(3-bromophenylsulfonyl)-2-oxo-2,3-dihydro-1H-imidazo[4,5-c]quinolin-1-yl)phenyl)-2-methylpropanenitrile]
IC50 [11]: > 3 µM
IC50 [1]: 1 to 3 µM
IC50 [12]: > 3 µM
IC50 [7]: > 3 µM
